# Assay results: patent US8389680B2, “Treatment of Aspergillus infections with alpha thymosin peptides” (SciClone Pharmaceuticals, Inc., priority 2003, dated 2013)
# What was measured:
# Assay type in all cases: cell-based
# murine DCs = test: RT-PCR of TLR expression on DCs
# Procedure: Synthesis and PCR of cDNA were performed with forward and reverse PCR primers and the cycles used for murine and human TLRs and HPRT. The synthesized PCR products were separated by electrophoresis on 2% agarose gel and visualized by ethidium bromide staining.
# TLR4/CD14 = target: T1, TLR4/CD14 (Homo sapiens, UniProt O00206); test: IL-8 production by TLR4/CD14-transfected HEK293 cells
# T1 construct: expressed in transfected cells; host or cells: HEK293
# Procedure: The human embryonic kidney cell line HEK293, wild type or stably transfected with human TLR2, TLR9 and TLR4/CD1427 were cultured in low glucose Dulbecco's modified Eagle's medium supplemented with 10% FCS, HEPES ([…]), L-glutamine ([…]), and gentamycin (50 microgram/ml). Transfectants were additionally supplemented with puromycin (100 microgram/ml). For stimulation experiments, cells were cultured at a density of 3 to 5×10^5 cells/wells in 12-well tissue culture plates overnight. Cells were washed and stimulated with 100 ng/ml TA1 either alone or together with TLR ligands for 5 h before the assessment of IL-8 production in the supernatants.
# The levels of TNF-alpha, IL-10, IL-12 p70, IFN-alpha and IL-8 in culture supernatants were determined by Kit ELISAs. The detection limits (pg/ml) of the assays were <3 (human) and <32 (murine) for TNF-alpha, <12 (murine) and <5 (human) for IL-10, <16 (murine) and <3 (human) for IL-12 p70 and <25 (human) IL-8. For human IFN-alpha <3 ng/ml. For enumeration of cytokine-producing cells, an ELISPOT assay was used on purified CD4^+ T cells and DCs from lungs.
# MyD88-dependent pathway = test: Cytokine production by DCs of MyD88-deficient mice
# Procedure: (§1) Female, 8- to 10-weeks old, BALB/c and C57BL6 mice were from Charles River. NOD/SCID were from The Jackson. Breeding pairs of homozygous TLR2-, TLR9- and MyD88-deficient mice, raised on C57BL6 background, and of homozygous IFN-gamma- and IL-4-deficient mice, raised on BALB/c background, were bred under specific-pathogen free conditions. For phagocytosis, DCs were pre-exposed to 100 ng/ml TA1 for 60 minutes and subsequently incubated at 37° C. with Aspergillus conidia for an additional 60 minutes. The percentage of internalization was calculated and photographs were taken. In assessing functional maturation and cytokine determination, purified DCs were resuspended in Iscove's medium (with no serum but with polymixin B, to avoid non-specific activation by serum components and endotoxin) and pulsed with 100 ng/ml TA1 for 24 hours either alone or together with TLR ligands or unopsonized Aspergillus conidia. The levels of TNF-alpha, IL-10, IL-12 p70, IFN-alpha and IL-8 in culture supernatants were determined by Kit ELISAs. The detection limits (pg/ml) of the assays were <3 (human) and <32 (murine) for TNF-alpha, <12 (murine) and <5 (human) for IL-10, <16 (murine) and <3 (human) for IL-12 p70 and <25 (human) IL-8. For human IFN-alpha <3 ng/ml. For enumeration of cytokine-producing cells, an ELISPOT assay was used on purified CD4^+ T cells and DCs from lungs.
# lung DCs = test: Activation of murine lung DCs: phagocytosis of Aspergillus conidia, costimulatory antigen expression, cytokine production
# Procedure: as §1, with “For mature PDCs, immature DCs were cultured with the trimeric human CD40 ligand as above and 10 ng/ml IL-3. […] The expression of HLA Class II, CD80 and CD86 was high in both immature and mature DCs. Murine lung CD 11c^+ DCs (between 5” for “Female, 8-”, “7% positive for CD8alpha” for “10-weeks old, BALB/c”, “between 30 to 35% positive for Gr-1)” for “C57BL6 mice”, “isolated by magnetic cell sorting.” for “from Charles River. NOD/SCID were from The Jackson. Breeding pairs of homozygous TLR2-, TLR9- and MyD88-deficient mice, raised on C57BL6 background, and of homozygous IFN-gamma- and IL-4-deficient mice, raised on BALB/c background, were bred under specific-pathogen free conditions.”, “conidia. Cell surface phenotype was assessed by reacting samples with FITC- or PE-conjugated rat anti-mouse antibodies. Unrelated hisotype matched antibodies were used as control.” for “conidia.”
# [1] = combined exposure to conidia and peptide
# [2] = combined exposure to Aspergillus conidia and TA1
# T1 sequence (O00206 24-839): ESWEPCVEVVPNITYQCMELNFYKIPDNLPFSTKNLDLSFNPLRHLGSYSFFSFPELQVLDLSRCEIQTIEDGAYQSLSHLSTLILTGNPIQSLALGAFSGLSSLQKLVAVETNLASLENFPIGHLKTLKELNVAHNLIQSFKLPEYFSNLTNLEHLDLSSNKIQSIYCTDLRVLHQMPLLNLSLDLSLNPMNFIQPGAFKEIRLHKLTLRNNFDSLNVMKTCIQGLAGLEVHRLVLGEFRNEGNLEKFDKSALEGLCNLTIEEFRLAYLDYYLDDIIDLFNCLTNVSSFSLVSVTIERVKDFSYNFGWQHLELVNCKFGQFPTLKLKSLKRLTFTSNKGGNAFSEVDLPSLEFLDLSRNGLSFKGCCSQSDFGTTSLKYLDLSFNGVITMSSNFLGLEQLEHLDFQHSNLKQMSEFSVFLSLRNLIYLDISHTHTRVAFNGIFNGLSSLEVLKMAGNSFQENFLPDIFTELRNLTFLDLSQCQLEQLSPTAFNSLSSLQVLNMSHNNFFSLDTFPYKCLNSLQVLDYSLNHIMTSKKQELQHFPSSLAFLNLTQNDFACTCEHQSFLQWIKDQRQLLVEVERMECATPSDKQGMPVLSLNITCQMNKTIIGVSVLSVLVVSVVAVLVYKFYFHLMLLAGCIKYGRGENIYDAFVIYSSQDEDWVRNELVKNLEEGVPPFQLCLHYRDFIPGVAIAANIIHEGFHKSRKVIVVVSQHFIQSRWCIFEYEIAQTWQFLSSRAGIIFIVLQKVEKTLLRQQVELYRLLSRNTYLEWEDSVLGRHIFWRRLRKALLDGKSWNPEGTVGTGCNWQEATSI
substance,measurement,setting,value
"Ac-Ser-Asp-Ala-Ala-Val-Asp-Thr-Ser-Ser-Glu-Ile-Thr-Thr-Lys-Asp-Leu-Lys-Glu-Lys-Lys-Glu-Val-Glu-Glu-Ala-Glu-Asn-O (Ac-SDAAVDTSSEITTKDLKEKKEVEEAEN-OH) [TA1, naturally occurring thymic peptide]",expression of TLR5,murine DCs; combined exposure to conidia and TA1,inhibited
same,expression of TLR2,murine DCs; [1],still activated
same,expression of TLR9,murine DCs; [1],still activated
same,expression of TLR2,murine DCs; peptide alone,strongly activates
same,expression of TLR5,murine DCs; peptide alone,strongly activates
same,expression of TLR9,murine DCs; peptide alone,strongly activates
same,production of IL-8,TLR4/CD14; TA1 alone,did not induce
same,production of IL-8,TLR4/CD14; in response to the TLR4 ligand LPS,did not induce
same,IL-10 production,MyD88-dependent pathway,dramatically ablated
same,IL-12 p70 production,MyD88-dependent pathway; TA1 and conidia,dramatically ablated
same,"activation of lung DCs for phagocytosis of unopsonized conidia, costimulatory antigen expression and cytokine production",lung DCs; 100 ng/ml,activates
same,"expression of MHC Class II antigens, CD86 and CD40 molecules",lung DCs; [2],remarkably increased
same,frequency of IL-12 p70-producing DCs,lung DCs; [2],remarkably increased
same,frequency of IL-12 p70-producing DCs,lung DCs; thymosin alone,also increased
